Structures can show the parent of a compound that is named as a salt.
SMILES | melting point [°C]
CN1C(=O)[C@@H](CN2CCCCC2)C[C@H]1C#Cc1ccccc1.Cl [Example D3] | 197 to 201
CN1C(=O)[C@@H](CN2CCCCC2)C[C@H]1c1cnc(-c2ccccc2Cl)s1.Cl [Example F1] | 178 to 183
CN1C(=O)[C@@H](CN2CCCCC2)C[C@H]1c1ccc2c(c1)CCCC2.Cl [Example A5] | 208 to 210
CN1C(=O)[C@@H](CN2CCCCC2)C[C@H]1C#Cc1ccccc1Cl.Cl [Example D5] | 166 to 169
Cc1ccc([C@@H]2C[C@H](CN3CCCCC3)C(=O)N2C)cc1C.Cl [Example A1] | 143 to 147
CN1C(=O)[C@@H](CN2CCCCC2)C[C@H]1c1cnc(-c2sccc2Cl)s1.Cl [Example F3] | 215 to 220
Cc1cc(C)cc([C@@H]2C[C@H](CN3CCCCC3)C(=O)N2C)c1.Cl [Example A4] | 172 to 180
CN1C(=O)[C@@H](CN2CCCCC2)C[C@H]1c1ccc(-c2ccccc2Cl)cc1.Cl [Example H2] | 134 to 139
CN1C(=O)[C@@H](CN2CCCCC2)C[C@H]1c1ccc(Br)cc1 (as salt: HCl) [Example A7, (−)-cis-5-(4-Bromo-phenyl)-1-methyl-3-piperidin-1-ylmethyl-pyrrolidin-2-one] | 55 to 58
CN1C(=O)[C@@H](CN2CCCCC2)C[C@H]1c1ccc(-c2ccccc2Cl)cc1.Cl [Example H3] | 130 to 135
CN1C(=O)[C@@H](CN2CCCCC2)C[C@H]1c1ccc(Br)s1 [Example E1, (+)-cis-5-(5-Bromo-thiophen-2-yl)-1-methyl-3-piperidin-1-ylmethyl-pyrrolidin-2-one] | 69 to 71
CC(=O)Nc1ccccc1C#C[C@H]1C[C@@H](CN2CCCCC2)C(=O)N1C.Cl | 135 to 140
CN1C(=O)[C@@H](CN2CCCCC2)C[C@H]1C#Cc1ccccc1Cl.Cl [Example D6] | 160 to 165
CN1C(=O)[C@@H](CN2CCCCC2)C[C@H]1c1cnc(-c2ccccc2Cl)s1.Cl [Example F2] | 171 to 176
Cc1cccc(C#C[C@@H]2C[C@H](CN3CCCCC3)C(=O)N2C)c1.Cl [Example D2] | 169 to 172
CN1C(=O)[C@@H](CN2CCCCC2)C[C@H]1c1ccc(-c2ccc3c(c2)OCO3)cc1 (relative stereo) [Example H5, cis-5-(4-(Benzo[1,3]dioxol-5-yl)-phenyl)-1-methyl-3-piperidin-1-ylmethyl-pyrrolidin-2-one] | 110 to 112
CN1C(=O)[C@@H](CN2CCCCC2)C[C@H]1C#Cc1ccccc1.Cl [Example D4] | 199 to 203
CN1C(=O)[C@@H](CN2CCCCC2)C[C@H]1c1ccc(-c2cccc(Cl)c2)s1.Cl [Example E10] | 155 to 158
Cc1ccc([C@@H]2C[C@H](CN3CCCCC3)C(=O)N2C)cc1C.Cl [Example A2] | 138 to 142
CN1C(=O)[C@@H](CN2CCCCC2)C[C@H]1c1ccc(-c2cccc(Cl)c2)s1.Cl [Example E9] | 162 to 163
CN1C(=O)[C@@H](CN2CCCCC2)C[C@H]1c1cnc(-c2sccc2Cl)s1.Cl [Example F4] | 207 to 210
CN1C(=O)[C@@H](CN2CCCCC2)C[C@H]1c1ccc2c(c1)CCCC2.Cl [Example A6] | 234 to 238
CN1C(=O)C(CN2CCCCC2)CC1C1CC1c1ccccc1Cl (stereo not shown) [Example C2, 5-[2-(2-Chloro-phenyl)-cyclopropyl]-1-methyl-3-piperidin-1-ylmethyl-pyrrolidin-2-one] | 87 to 90
Cc1cc(C)cc([C@@H]2C[C@H](CN3CCCCC3)C(=O)N2C)c1.Cl [Example A3] | 184 to 190
Cc1cccc(C#C[C@@H]2C[C@H](CN3CCCCC3)C(=O)N2C)c1.Cl [Example D1] | 163 to 167

Source: US20070172421A1, “Substituted pyrrolidine-2-ones” (priority 2004, published 2007)
